Columns and labels:
[1] = test system: secretion of other anterior pituitary hormones; experiment: Blood concentrations of other anterior pituitary hormones after single dose administration in human (Phase 1 study); format: in vivo; details: healthy Japanese adult men; single oral dose 1 mg or 10 mg
Method: (§1) The examples in this section show the measurement results of blood anterior pituitary hormone concentrations using blood samples from a dose escalation study targeting healthy Japanese adult men, from A Randomized, Double-Blind, Placebo-Controlled, Phase 1 Study (jRCT2051210027) targeting healthy adults, which was conducted to examine the safety and tolerability, pharmacokinetics, and pharmacodynamic action of a single administration of test compound 1.
(§2) In a randomized, double-blind, placebo-controlled, parallel-group comparison, dose-escalation study consisting of 7 cohorts, a single dose of test compound 1 (1, 3, 10, 20, 40, 80 and 160 mg) or placebo was orally administered under fasting conditions. Eight test subjects (6 in the active drug group and 2 in the placebo group) participated in each cohort. The concomitant use of all medications was prohibited from 28 days before hospitalization until discharge.
The test subjects were inspected and examined within 28-2 days and 1 day before administration of test compound 1, and eligibility was confirmed based on the above-mentioned inclusion criteria and exclusion criteria. […] They were fasted for 10 hr before administration and 4 hr after administration until lunch, and took lunch at 13:[…]. The blood was collected 0.5 hr before and 1, 2, 4, 6, 8, and 10 hr after administration of test compound 1.
The concentration of anterior pituitary hormone was measured using blood from the placebo administration group of all cohorts and the test subjects who received administration of 1 mg or 10 mg of test compound 1, at 0.5 hr before administration and 2, 4, 6, 8, and 10 hr after administration. The concentrations of growth hormone, follicle-stimulating hormone, luteinizing hormone, thyroid-stimulating hormone, adrenocorticotropic hormone, and prolactin in blood were measured using the Human Growth Hormone Quantikine ELISA Kit (manufactured by R&D Systems), Follicle-Stimulating Hormone (Human) ELISA Kit (manufactured by Cayman Chemical), Luteinizing Hormome (Human) ELISA Kit (manufactured by Cayman Chemical), U-TSH ELISA (manufactured by BIOCHECK), ACTH ELISA Kit (manufactured by MB Biosciences GmbH), and Human Prolactin Quantikine ELISA Kit (manufactured by R&D Systems) according to the protocol described in the package insert of each kit.
The time course changes in the blood anterior pituitary hormone concentrations after oral administration of placebo (n=14) or test compound 1 at doses of 1 mg and 10 mg (n=6 for each) are shown in FIG. 1-6.

human SSTR 5 = biological target: T1, human SSTR 5 (Homo sapiens, UniProt P35346); experiment: Radiolabeled ligand binding assay, human SSTR subtype selectivity; details: SSTR5 versus SSTR1-4, 1 μM
T1 construct: expressed in transfected cells; host or cells: CHO-K1 cells (membrane fraction)
T1 sequence (P35346 whole entry): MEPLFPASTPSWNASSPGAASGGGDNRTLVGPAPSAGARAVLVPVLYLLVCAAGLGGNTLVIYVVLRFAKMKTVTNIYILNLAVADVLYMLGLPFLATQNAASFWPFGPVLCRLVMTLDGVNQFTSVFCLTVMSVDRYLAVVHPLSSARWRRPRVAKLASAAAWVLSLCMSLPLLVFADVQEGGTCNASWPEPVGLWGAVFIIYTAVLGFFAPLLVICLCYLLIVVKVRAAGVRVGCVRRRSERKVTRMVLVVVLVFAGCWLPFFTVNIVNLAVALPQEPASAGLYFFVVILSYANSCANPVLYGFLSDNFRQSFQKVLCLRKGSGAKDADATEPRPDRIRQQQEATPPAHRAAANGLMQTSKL
Method: The selectivity of test compounds for human SSTR subtypes was investigated by radiolabeled ligand binding assay. The membrane fraction of CHO-K1 cells expressing human SSTR1-5 was suspended in am assay buffer (25 mM HEPES (pH 7.4), 5 mM MgCl2, 1 mM CaCl2), 10 μg/mL saponin, 0.5% fatty-acid free BSA) and incubated for 1 hr in the presence of 1 μM test compound 1 and [^125I]Tyr^11-somatostatin 14 (Perkin Elmer). Thereafter, the solution containing the membrane fraction was transferred onto a filter plate, and after washing the filter six times with a wash buffer (25 mM HEPES, 5 mM MgCl2, 1 mM CaCl2), 50 μL of Microscint 20 (Packard) was added, and the radioactivity was measured using a TopCount (Perkin Elmer). The results of competitive activity of the test compound against the binding of the human SSTR subtypes with the labeled ligands are shown in Table 2.

growth hormone secretion = experiment: Growth hormone secretion enhancing action by single dose administration in human (Phase 1 study); format: in vivo
Method: as §1
as §2, with “discharge. […]” for “discharge.”
The concentration of anterior pituitary hormone was measured using blood from the placebo administration group of all cohorts and the test subjects who received administration of 1 mg or 10 mg of test compound 1, at 0.5 hr before administration and 2, 4, 6, 8, and 10 hr after administration. […]

secretion of adrenocorticotropic hormone (blood concentration) [1]: did not substantially affect
secretion of follicle-stimulating hormone (blood concentration) [1]: did not substantially affect
secretion of luteinizing hormone (blood concentration) [1]: did not substantially affect
secretion of prolactin (blood concentration) [1]: did not substantially affect
secretion of thyroid-stimulating hormone (blood concentration) [1]: did not substantially affect
selectivity of binding among the human SSTR subtypes (human SSTR 5): selectively binds to SSTR5
SMILES: CCCc1nc2c(cc1C(=O)O)C(=O)N(C1CCN(Cc3cc(C4CC4)c(-c4ccc(F)cc4)cc3OCC)CC1)CC2 [test compound 1, 6-(1-((2-cyclopropyl-5-ethoxy-4′-fluorobiphenyl-4-yl)methyl)piperidin-4-yl)-5-oxo-2-propyl-5,6,7,8-tetrahydro-1,6-naphthyridine-3-carboxylic acid]
growth hormone secretion (blood growth hormone concentration) (growth hormone secretion; healthy Japanese adult men, single oral dose 1 mg or 10 mg, fasting, 2-10 hr after administration): clearly enhance growth hormone secretion
increase in blood growth hormone concentration compared with growth hormone replacement therapy (growth hormone secretion; human, compared with literature values for patients with pediatric growth hormone deficiency): corresponds to the blood growth hormone concentration obtained by growth hormone replacement therapy
